From patent US7704995B2 (Exelixis, Inc., priority 2003, dated 2010)

Molecular target: T1, Chk2 (Homo sapiens, UniProt O96017)
T1 construct: purchased Upstate Biotechnology
Test: Chk2 kinase assay: incorporation of γ-33P ATP into immobilized myelin basic protein
Format: biochemical
Conditions: 20 nM Chk2, 30 μM unlabeled ATP, 1 hour at room temperature; read-out: Chk2 inhibition, IC50
Description: Chk1 and Chk2 assays were performed by measuring incorporation of γ-^33P ATP into immobilized myelin basic protein (MBP). High binding white 384 well plates (Greiner) were coated with MBP (Sigma #M-1891) by incubation of 60 ul/well of 20 μg/ml MBP in Tris-buffered saline (TBS; 50 mM Tris pH 8.0, 138 mM NaCl, 2.7 mM KCl) for 24 hours at 4° C. Plates were washed 3× with 100 μl TBS. Kinase reactions were carried out in a total volume of 34 μl in kinase buffer (5 mM Hepes pH 7.6, 15 mM NaCl, 0.01% bovine gamma globulin (Sigma #I-5506), 10 mM MgCl2, 1 mM DTT, 0.02% TritonX-100). Compound dilutions were performed in DMSO and added to assay wells to a final DMSO concentration of 1%. Each data point was measured in duplicate, and at least two duplicate assays were performed for each individual compound determination. […] A mixture of unlabeled ATP and γ-^33P ATP was added to start the reaction (2×10^6 cpm of γ-^33P ATP per well (3000 Ci/mmole) and either 10 μM or 30 μM unlabeled ATP (for Chk1 and Chk2 assays respectively). The reaction was carried out for 1 hour at room temperature with shaking. Plates were washed 7× with TBS, followed by the addition of 50 μl/well scintillation fluid (Wallac). Plates were read using a Wallac Trilux counter. This is only one format of such assays, various other formats are possible, as known to those skilled in the art. […]

T1 sequence (O96017 whole entry): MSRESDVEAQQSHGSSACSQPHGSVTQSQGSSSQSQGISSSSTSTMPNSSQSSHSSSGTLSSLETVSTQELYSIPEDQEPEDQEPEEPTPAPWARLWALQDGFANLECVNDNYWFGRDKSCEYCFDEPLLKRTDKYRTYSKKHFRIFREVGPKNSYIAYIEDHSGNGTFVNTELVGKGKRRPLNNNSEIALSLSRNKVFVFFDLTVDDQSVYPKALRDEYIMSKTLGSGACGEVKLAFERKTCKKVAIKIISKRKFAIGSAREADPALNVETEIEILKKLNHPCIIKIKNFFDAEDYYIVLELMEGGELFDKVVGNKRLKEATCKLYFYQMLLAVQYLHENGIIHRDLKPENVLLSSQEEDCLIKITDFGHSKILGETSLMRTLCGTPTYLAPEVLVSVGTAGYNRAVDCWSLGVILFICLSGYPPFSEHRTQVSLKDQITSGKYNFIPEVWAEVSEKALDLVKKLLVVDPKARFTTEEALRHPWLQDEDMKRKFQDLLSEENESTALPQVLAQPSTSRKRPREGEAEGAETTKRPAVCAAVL

`NC(=O)c1nc(-c2cccc3ccccc23)cnc1N` [Example 2, 3-Amino-6-naphthalen-1-ylpyrazine-2-carboxamide] gave an IC50 of less than 50 nM.
